pIC50: −log10 of the molar value.
What was measured:
[1] = target: T1, Ephrin type-B receptor 4 (Homo sapiens) (UniProt P54760); experiment: Selectivity interaction (KinomeScan (DiscoverX)) EUB0001049a EPHB4; conditions: at 1 µM
T1 sequence (whole entry): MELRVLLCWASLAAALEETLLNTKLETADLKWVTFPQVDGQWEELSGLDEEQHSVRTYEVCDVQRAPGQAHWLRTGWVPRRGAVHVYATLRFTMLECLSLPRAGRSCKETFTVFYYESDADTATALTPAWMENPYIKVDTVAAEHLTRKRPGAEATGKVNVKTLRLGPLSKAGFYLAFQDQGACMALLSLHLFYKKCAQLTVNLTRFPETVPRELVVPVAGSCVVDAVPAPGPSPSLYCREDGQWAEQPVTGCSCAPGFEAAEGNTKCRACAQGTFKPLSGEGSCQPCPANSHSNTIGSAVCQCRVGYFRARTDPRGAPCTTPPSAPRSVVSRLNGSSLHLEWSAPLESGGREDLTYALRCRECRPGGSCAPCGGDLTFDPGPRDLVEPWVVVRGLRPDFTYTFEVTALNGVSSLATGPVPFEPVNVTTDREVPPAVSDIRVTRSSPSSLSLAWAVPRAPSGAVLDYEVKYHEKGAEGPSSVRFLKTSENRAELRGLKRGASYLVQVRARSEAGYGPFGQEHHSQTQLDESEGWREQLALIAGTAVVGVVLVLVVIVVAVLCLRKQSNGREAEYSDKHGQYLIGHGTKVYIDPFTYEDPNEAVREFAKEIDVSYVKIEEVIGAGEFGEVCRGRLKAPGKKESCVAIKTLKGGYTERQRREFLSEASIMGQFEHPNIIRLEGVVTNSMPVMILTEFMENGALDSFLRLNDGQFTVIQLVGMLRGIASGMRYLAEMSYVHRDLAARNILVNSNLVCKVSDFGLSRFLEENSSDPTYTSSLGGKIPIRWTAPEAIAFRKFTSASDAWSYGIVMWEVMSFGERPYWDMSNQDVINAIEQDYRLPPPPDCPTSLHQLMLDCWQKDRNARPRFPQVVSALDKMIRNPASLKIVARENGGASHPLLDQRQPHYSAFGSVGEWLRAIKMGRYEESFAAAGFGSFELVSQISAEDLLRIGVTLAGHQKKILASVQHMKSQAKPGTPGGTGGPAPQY

[2] = target: Tyrosine-protein kinase CSK (Homo sapiens) (UniProt P41240); experiment: Selectivity interaction (Millipore kinase profiler) EUB0000124b CSK; conditions: at 10 µM
Sequence of Tyrosine-protein kinase CSK (Homo sapiens) (P41240 2-450 limits assumed): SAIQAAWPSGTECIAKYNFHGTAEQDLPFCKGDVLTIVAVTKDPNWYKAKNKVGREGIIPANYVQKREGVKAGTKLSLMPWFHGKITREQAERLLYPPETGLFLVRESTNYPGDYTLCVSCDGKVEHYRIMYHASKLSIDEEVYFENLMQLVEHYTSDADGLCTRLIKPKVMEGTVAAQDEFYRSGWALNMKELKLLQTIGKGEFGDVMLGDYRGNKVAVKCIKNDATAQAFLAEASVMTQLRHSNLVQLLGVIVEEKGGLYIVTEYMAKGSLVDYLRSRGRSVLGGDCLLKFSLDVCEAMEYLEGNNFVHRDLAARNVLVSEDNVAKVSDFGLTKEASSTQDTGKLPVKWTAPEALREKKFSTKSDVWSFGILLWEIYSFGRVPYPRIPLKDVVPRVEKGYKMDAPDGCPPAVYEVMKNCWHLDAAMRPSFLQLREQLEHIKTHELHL

[3] = target: T2, SNF-related serine/threonine-protein kinase (Homo sapiens) (UniProt Q9NRH2); conditions: at 10 µM
T2 sequence (whole entry): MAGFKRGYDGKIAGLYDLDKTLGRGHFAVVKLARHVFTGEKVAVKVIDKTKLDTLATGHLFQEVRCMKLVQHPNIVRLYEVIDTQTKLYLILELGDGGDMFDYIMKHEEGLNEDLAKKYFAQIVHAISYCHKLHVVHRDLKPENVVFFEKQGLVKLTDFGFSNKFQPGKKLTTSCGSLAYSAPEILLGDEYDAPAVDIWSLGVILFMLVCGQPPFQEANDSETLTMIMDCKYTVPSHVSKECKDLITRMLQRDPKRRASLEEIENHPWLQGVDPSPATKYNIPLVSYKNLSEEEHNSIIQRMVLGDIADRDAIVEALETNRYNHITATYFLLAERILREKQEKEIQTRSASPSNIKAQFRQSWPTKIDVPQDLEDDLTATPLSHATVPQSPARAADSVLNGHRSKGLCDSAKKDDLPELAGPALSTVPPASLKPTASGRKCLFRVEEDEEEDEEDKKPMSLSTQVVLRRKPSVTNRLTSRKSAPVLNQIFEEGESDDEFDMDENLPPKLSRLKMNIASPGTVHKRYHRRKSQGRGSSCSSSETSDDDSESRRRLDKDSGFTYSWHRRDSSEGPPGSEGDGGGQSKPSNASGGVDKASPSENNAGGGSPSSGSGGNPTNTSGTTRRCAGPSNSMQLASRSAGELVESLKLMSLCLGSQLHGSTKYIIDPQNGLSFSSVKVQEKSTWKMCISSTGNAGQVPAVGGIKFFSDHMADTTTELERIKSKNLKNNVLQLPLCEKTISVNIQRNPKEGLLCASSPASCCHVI

[4] = target: Serine/threonine-protein kinase Chk1 (Homo sapiens, UniProt O14757)
Sequence of Serine/threonine-protein kinase Chk1 (O14757 whole entry, the tested form may be a part): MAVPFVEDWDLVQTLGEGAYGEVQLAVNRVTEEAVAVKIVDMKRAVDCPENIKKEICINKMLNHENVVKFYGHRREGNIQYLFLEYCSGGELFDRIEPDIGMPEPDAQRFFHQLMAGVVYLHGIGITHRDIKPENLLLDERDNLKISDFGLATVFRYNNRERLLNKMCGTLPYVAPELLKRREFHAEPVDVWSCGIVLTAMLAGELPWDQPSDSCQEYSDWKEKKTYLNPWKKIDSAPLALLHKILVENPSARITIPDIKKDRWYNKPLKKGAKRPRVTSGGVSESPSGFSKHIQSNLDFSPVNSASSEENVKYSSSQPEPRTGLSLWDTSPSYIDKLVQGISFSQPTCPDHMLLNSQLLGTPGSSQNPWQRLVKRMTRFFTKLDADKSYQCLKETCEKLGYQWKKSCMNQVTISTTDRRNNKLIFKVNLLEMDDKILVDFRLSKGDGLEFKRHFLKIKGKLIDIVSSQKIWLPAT

[5] = target: T3, Ankyrin repeat and protein kinase domain-containing protein 1 (Homo sapiens) (UniProt Q8NFD2); experiment: Selectivity interaction (LanthaScreen Eu Kinase Binding Assay) EUB0001632a ANKK1; conditions: at 10 µM
T3 sequence (whole entry): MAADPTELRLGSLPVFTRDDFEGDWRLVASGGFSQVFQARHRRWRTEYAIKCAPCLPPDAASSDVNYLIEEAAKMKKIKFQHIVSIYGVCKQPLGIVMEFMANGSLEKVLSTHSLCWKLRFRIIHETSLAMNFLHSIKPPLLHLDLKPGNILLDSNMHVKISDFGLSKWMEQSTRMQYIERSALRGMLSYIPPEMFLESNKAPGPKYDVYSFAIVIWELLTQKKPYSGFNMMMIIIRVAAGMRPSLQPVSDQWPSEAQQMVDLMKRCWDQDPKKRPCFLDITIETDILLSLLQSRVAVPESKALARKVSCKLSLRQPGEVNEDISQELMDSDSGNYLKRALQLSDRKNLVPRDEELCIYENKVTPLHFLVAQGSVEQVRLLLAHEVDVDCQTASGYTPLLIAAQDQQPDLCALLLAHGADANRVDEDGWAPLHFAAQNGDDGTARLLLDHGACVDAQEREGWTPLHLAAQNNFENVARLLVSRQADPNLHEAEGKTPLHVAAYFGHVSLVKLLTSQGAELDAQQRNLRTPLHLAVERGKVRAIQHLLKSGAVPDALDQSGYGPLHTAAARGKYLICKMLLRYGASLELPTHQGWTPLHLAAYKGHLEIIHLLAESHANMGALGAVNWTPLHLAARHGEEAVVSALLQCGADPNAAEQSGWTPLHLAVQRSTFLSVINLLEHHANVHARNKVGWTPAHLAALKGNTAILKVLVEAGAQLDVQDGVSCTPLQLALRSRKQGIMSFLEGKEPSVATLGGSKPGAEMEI

[6] = target: T4, Aurora kinase C (Homo sapiens) (UniProt Q9UQB9); experiment: Selectivity interaction (Kinase panel (Z-LYTE Assay)) EUB0001632a AURKC; conditions: at 10 µM
T4 sequence (whole entry): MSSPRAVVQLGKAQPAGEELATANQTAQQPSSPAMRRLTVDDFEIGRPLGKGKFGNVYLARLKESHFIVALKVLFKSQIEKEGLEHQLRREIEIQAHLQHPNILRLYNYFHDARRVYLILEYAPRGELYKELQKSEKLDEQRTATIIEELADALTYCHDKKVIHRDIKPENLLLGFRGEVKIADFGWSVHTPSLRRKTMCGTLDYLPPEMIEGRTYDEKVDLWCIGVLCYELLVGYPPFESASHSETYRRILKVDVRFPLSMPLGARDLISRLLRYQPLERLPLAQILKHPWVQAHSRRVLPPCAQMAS

COc1cc(Nc2nc(C)cc(-c3cnn4nc(OC)ccc34)n2)cc(C(F)(F)F)c1
% of control [1]: 94%

CC(=O)Nc1cccc(-n2c(=O)n(C3CC3)c(=O)c3c(Nc4ccc(I)cc4F)n(C)c(=O)c(C)c32)c1
% of control [2]: 97%

Cc1cc([C@@H](C)Nc2ccccc2C(=O)O)c2nc(N3CCOCC3)cc(=O)n2c1 [AZD-6482]
% of control [3]: 89%

CCc1cccc(CC)c1NC(=O)c1nn(C)c2c1CCc1cnc(Nc3ccc(C(=O)NC4CCN(C)CC4)cc3OC(F)(F)F)nc1-2
pIC50 [4]: < 5.00

Cn1cc(-n2cnc3c(NCc4nc5cc(Cl)c(Cl)cc5[nH]4)nc(N4CCOCC4)nc32)cn1
% of inhibition [5]: -44.9% | % of control [6]: 8.76%

From ChEMBL document CHEMBL5465560, “Selectivity Literature for EUbOPEN Chemogenomic Library” (2024)
